This note sets out measurements from US4570006A, “Amidine compound, process for producing same and anti-complement agent comprising same” (Torii & Co. Ltd., priority 1981, dated 1986).

The target in one test is T1, Cls (Homo sapiens, UniProt P09871).
T1 sequence (P09871 438-688 limits assumed): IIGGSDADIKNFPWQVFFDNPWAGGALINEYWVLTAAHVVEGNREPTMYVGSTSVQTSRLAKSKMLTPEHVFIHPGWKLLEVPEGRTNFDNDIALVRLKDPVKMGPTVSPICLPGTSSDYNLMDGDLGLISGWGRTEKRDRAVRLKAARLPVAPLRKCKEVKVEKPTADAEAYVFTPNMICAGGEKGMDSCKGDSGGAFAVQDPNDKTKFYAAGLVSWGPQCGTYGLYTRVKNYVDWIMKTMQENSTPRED
T1 sequence (P09871 16-437 limits assumed): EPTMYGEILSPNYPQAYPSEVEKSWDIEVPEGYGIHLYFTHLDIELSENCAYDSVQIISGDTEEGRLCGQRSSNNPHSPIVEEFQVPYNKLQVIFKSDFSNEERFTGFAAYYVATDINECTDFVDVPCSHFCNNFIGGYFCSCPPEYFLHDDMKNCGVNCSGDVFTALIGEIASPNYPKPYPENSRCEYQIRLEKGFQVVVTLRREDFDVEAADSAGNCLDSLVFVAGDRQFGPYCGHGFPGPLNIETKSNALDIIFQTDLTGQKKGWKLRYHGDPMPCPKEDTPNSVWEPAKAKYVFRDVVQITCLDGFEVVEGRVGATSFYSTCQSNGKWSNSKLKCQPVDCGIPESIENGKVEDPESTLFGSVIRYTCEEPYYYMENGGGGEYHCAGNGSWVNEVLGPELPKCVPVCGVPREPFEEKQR
Put plainly: Anti-Cl esterase activity, Cls (ATEE hydrolysis). Format: biochemical. To be noted: hydrolysis of ATEE; read-out: Anti-Cl activity, Cls (50% inhibition). As for the experimental part:
The anti-Cl esterase (Clr, Cls) activity was determined according to the method of Okamura et al. [K. Okamura, M. Muramatsu and B. Fujii, Biochem. Biophys. […] The figures in Table 2 have the following meanings:
Cls: Molar concentration of the test compound which inhibits 50% of the ability of Cls to hydrolyse ATEE (acetyltyrosin ethyl ester).

For a further test, the target named is Plasmin (Homo sapiens, UniProt P00747). In words: Anti-plasmin activity (inhibition of TAME hydrolysis). Format: biochemical. The conditions noted are these: read-out: ID50, plasmin. As for the experimental part: (§1) The anti-trypsin, anti-plasmin, anti-kallikrein and anti-thrombin activities were determined according to the method of Muramatsu et al. [M. Muramatsu, T. Onishi, S. Makino, Y. Hayashi and S. Fujii, J. of Biochem., 58, 214 (1965)]. The data summarized in Table 1 are expressed in terms of molar concentration (ID50) of the test compound which inhibits 50% of the activity of each enzyme to hydrolyze TAME (tosylarginine methyl ester). The compound No. corresponds to the compound number shown in Examples.

A further test concerns the target Thrombin (Homo sapiens, UniProt P00734). In words: biochemical. To be noted: TAME hydrolysis; read-out: ID50, thrombin.
The next test has as its target T2, Clr (Homo sapiens, UniProt P00736).
T2 sequence (P00736 464-705 limits assumed): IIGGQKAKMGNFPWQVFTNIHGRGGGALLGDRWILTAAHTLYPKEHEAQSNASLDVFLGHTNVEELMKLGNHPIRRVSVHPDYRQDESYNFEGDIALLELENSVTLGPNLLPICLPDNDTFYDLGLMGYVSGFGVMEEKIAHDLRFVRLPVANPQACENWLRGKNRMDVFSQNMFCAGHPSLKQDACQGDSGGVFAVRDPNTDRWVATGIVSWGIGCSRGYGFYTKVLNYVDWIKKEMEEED
T2 sequence (P00736 18-463 limits assumed): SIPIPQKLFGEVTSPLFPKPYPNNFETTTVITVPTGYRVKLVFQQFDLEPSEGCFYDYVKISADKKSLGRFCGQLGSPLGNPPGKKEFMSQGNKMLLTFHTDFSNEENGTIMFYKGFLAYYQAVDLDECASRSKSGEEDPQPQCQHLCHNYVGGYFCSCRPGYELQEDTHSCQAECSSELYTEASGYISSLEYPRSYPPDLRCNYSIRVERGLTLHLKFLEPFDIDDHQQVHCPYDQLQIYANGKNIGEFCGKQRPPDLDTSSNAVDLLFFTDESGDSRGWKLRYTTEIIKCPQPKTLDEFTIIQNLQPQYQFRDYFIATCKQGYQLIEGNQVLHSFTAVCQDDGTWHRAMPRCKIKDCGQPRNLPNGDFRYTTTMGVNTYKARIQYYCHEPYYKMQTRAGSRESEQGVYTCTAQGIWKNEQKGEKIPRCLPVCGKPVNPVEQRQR
Put plainly: Anti-Cl esterase activity, Clr (AAME hydrolysis). To be noted: hydrolysis of AAME; read-out: Anti-Cl activity, Clr (ID50). Format: biochemical. How it is done:
The anti-Cl esterase ([…]) activity was determined according to the method of Okamura et al. [K. Okamura, M. Muramatsu and B. Fujii, Biochem. Biophys.

In a further test the target is T3, Trypsin (Bos taurus, UniProt P00760).
T3 sequence (P00760 24-246): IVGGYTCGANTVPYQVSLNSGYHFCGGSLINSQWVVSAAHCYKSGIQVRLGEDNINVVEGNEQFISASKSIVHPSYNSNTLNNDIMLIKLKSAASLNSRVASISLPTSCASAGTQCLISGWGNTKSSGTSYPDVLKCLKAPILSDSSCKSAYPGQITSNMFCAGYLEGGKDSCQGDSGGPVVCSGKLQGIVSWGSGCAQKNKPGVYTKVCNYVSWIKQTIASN
Put plainly: Anti-trypsin activity (inhibition of TAME hydrolysis). The class given is biochemical. The conditions noted are these: read-out: ID50, trypsin. As for the experimental part: as §1

Another test has as its system Kallikrein. Put plainly: Anti-kallikrein activity (inhibition of TAME hydrolysis). The class given is biochemical. To be noted: read-out: ID50, kallikrein. As for the experimental part: as §1
In the next test the test system is complement. Put plainly: Inhibition of complement mediated hemolysis. The class given is cell-based.

A value given as a limit tells only on which side of the number the result lay.

Chain of Plasmin (P00747 581-810 limits assumed, species assumed): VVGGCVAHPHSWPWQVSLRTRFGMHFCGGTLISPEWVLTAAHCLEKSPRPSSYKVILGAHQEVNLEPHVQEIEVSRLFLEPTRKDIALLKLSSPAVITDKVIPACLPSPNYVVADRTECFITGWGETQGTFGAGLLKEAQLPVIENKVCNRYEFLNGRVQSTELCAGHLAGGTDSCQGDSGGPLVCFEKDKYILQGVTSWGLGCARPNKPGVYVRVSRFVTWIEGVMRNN
Chain of Plasmin (P00747 97-580 limits assumed, species assumed): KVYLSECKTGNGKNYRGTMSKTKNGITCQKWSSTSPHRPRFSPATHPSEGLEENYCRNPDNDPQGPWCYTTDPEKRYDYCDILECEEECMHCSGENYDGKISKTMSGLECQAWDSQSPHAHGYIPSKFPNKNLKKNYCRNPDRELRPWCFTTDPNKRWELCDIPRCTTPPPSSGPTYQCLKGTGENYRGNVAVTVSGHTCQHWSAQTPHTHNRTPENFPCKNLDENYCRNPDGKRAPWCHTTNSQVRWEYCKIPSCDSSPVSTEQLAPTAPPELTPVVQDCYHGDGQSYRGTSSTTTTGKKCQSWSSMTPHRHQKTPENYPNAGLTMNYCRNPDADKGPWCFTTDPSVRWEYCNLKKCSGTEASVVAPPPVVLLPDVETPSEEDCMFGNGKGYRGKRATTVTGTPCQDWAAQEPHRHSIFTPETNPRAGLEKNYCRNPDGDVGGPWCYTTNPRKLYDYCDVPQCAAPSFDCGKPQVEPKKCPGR

Consider `N=C(N)c1ccc(OC(=O)CCCCCN)c(C(=O)c2ccccc2)c1` [Compound 13, 4-amidino-2-benzoylphenyl 6-aminocaproate], for which the IC50 at Cls, at Plasmin, at Thrombin, on Clr, at Trypsin and with Kallikrein was more than 10 µM each time. The “Inhibition of complement mediated hemolysis (%)” value (“Inhibition … (%)” below) was 15.9% in the test on complement (compound at 1 × 10^-4), 9.8% in the test on complement (compound at 1 × 10^-5), 0% in the test with complement (compound at 1 × 10^-6) and 0% in the test on complement (compound at 1 × 10^-7).
`COc1cc(C(=N)N)ccc1OC(=O)CCCCCNC(=N)N` [Compound 14, 4-amidino-2-methoxyphenyl 6-guanidinocaproate]: the IC50 at Cls was more than 10 µM; on Plasmin it was 10 µM; on Thrombin, 10 µM; at Clr, more than 10 µM; on Trypsin, 10 µM; in the test with Kallikrein, 10 µM. Also, the “Inhibition … (%)” value is on record as 63.6% in the test on complement (compound at 1 × 10^-4), 16.2% in the test with complement (compound at 1 × 10^-5), 7.0% in the test with complement (compound at 1 × 10^-6) and 0% with complement (compound at 1 × 10^-7).
As for `COc1cc(C(=N)N)ccc1OC(=O)[C@H]1CC[C@H](CNC(=O)OCc2ccccc2)CC1` [Compound 16], the IC50 was 0.8 µM at Cls; 0.3 µM at Plasmin; 1 µM on Thrombin; more than 10 µM at Clr; 10 µM at Trypsin; 5 µM with Kallikrein. The “Inhibition … (%)” value was 91.2% with complement (compound at 1 × 10^-4), 61.8% in the test on complement (compound at 1 × 10^-5), 17.4% with complement (compound at 1 × 10^-6) and 3.4% in the test with complement (compound at 1 × 10^-7).
Turning to `COc1cc(C(=N)N)ccc1OC(=O)[C@H]1CC[C@H](CN)CC1` [Compound 17], the IC50 at Cls, at Plasmin, on Thrombin, at Clr, at Trypsin and in the test with Kallikrein was more than 10 µM in each case. Further, the “Inhibition … (%)” value in the test with complement (compound at 1 × 10^-4) was determined as 98.6%; in the test on complement (compound at 1 × 10^-5) it was 78.2%; in the test on complement (compound at 1 × 10^-6) it was 20.4%; in the test with complement (compound at 1 × 10^-7) it was 0%.
As for `COC(=O)c1cc(C(=N)N)ccc1OC(=O)[C@H]1CC[C@H](CNC(=O)OCc2ccccc2)CC1` [Compound 18, 4-amidino-2-methoxycarbonylphenyl trans-4-benzyloxycarbonylaminomethylcyclohexanecarboxylate], the IC50 at Cls was 2 µM; at Plasmin it was 0.5 µM; on Thrombin, 4 µM; on Clr, more than 10 µM; at Trypsin, 3 µM; in the test with Kallikrein, 1 µM. For the same compound, the “Inhibition … (%)” value turned out to be 98.8% in the test on complement (compound at 1 × 10^-4), 73.2% with complement (compound at 1 × 10^-5), 11.4% in the test with complement (compound at 1 × 10^-6) and 2.2% with complement (compound at 1 × 10^-7).
In the case of `COC(=O)c1cc(C(=N)N)ccc1OC(=O)[C@H]1CC[C@H](CN)CC1` [Compound 19, 4-amidino-2-methyoxycarbonylphenyl trans-4-aminomethylcyclohexanecarboxylate], the IC50 at Cls, at Plasmin, at Thrombin, at Clr, at Trypsin and with Kallikrein was more than 10 µM each time. For the same compound, the “Inhibition … (%)” value is given as 99.2% with complement (compound at 1 × 10^-4), 83.4% with complement (compound at 1 × 10^-5), 15.0% with complement (compound at 1 × 10^-6) and 5.0% with complement (compound at 1 × 10^-7).
Take `N=C(N)c1ccc(OC(=O)[C@H]2CC[C@H](CNC(=O)OCc3ccccc3)CC2)c(C(=O)c2ccccc2)c1` [Compound 20]: the IC50 was 0.3 µM on Cls; 0.6 µM at Plasmin; 0.5 µM on Thrombin; more than 10 µM at Clr; 1 µM at Trypsin; 0.6 µM in the test with Kallikrein. Moreover, the “Inhibition … (%)” value with complement (compound at 1 × 10^-4) came out at 96.8%; in the test with complement (compound at 1 × 10^-5), 80.3%; with complement (compound at 1 × 10^-6), 13.0%; in the test on complement (compound at 1 × 10^-7) it was 1.8%.
Take `N=C(N)c1ccc(OC(=O)[C@H]2CC[C@H](CN)CC2)c(C(=O)c2ccccc2)c1` [Compound 21]: the IC50 on Cls is 4 µM; on Plasmin it was more than 10 µM; on Thrombin, more than 10 µM; on Clr, more than 10 µM; on Trypsin, more than 10 µM; in the test on Kallikrein, more than 10 µM. Further, the “Inhibition … (%)” value is 99.3% with complement (compound at 1 × 10^-4), 99.9% in the test on complement (compound at 1 × 10^-5), 60.2% in the test on complement (compound at 1 × 10^-6) and 10.9% with complement (compound at 1 × 10^-7).
Take `Cc1cc(OC(=O)c2ccccc2)ccc1C(=N)N` [Compound 22, 4-amidino-3-methylphenyl benzoate]: the IC50 is more than 10 µM on Cls; more than 10 µM on Plasmin; 2 µM on Thrombin; 6 µM at Clr; more than 10 µM at Trypsin; more than 10 µM in the test on Kallikrein. Besides, the “Inhibition … (%)” value with complement (compound at 1 × 10^-4) was 22.8%; with complement (compound at 1 × 10^-5) it was 0%; in the test with complement (compound at 1 × 10^-6), 0%; in the test with complement (compound at 1 × 10^-7), 0%.
On to `N=C(N)c1ccc(OC(=O)c2ccccc2)c(C(=O)O)c1` [Compound 24, 4-amidino-2-carboxyphenyl benzoate], for which the IC50 at Cls was 2 µM; at Plasmin it was more than 10 µM; at Thrombin, 4 µM; at Clr, more than 10 µM; on Trypsin, 3 µM; with Kallikrein, more than 10 µM. The “Inhibition … (%)” value with complement (compound at 1 × 10^-4) is given as 88.2%; in the test on complement (compound at 1 × 10^-5) it was 29.1%; in the test on complement (compound at 1 × 10^-6), 11.0%; in the test on complement (compound at 1 × 10^-7), 16.7%.
